From patent US20120065196A1, “AMIDE COMPOUNDS” (priority 2006, published 2012)

Molecular target: T1, human DGAT1 (Homo sapiens, UniProt O75907)
T1 construct: (N); made in house; host or cells: Sf9 insect cells infected with recombinant baculovirus BAC-DGAT1; microsome fraction
T1 sequence (O75907 1-488): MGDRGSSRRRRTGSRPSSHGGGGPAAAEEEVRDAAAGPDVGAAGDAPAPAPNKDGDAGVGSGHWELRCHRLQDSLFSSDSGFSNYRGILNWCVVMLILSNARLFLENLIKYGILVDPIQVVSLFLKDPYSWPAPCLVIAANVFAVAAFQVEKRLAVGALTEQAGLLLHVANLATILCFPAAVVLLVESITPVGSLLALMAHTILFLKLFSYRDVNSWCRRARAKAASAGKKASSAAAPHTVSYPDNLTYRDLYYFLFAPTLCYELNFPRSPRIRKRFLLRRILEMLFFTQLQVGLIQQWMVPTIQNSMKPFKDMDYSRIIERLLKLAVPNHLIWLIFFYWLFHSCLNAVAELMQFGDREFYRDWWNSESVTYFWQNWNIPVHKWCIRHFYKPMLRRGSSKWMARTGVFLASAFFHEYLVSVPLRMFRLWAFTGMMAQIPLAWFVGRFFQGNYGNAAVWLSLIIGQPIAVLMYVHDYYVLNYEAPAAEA
Test: Determination of DGAT inhibitory activity (triglyceride synthesis with DGAT1 high expression Sf9 microsome)
Format: biochemical
Details: 25 μM dioleoylglycerol, 25 μM [14C]-Oleoyl-CoA, 32° C., 20 min, read-out: hDGAT1 IC50
Experimental: Human DGAT1 gene was cloned by PCR using human adipocyte cDNA (Clontech, QUICK-Clone cDNA, human fat cell, cat #637220) as a template and, based on the DGAT1 gene information reported by Case, S. et al. (Proc. Natl. Acad. Sci. U.S.A. 95 (22), 13018-13023 (1998)), a nucleotide sequence (245-1711 of Genbank Accession No. NM_012079) encoding DGAT1 was amplified with the following PCR primer. The primer nucleotide sequence is shown below.
The PCR reaction was conducted using a KOD-plus kit (TOYOBO). The obtained PCR product was electrophoresed on agarose gel (1%), the DNA fragment amplified by PCR was recovered from the gel, and then digested with restriction enzymes EcoRI and SpeI. The DNA treated with the restriction enzymes was electrophoresed on agarose gel (1%), and the obtained DNA fragment was recovered and ligated with plasmid pFASTBAC1 (Invitrogen) digested with restriction enzymes EcoRI and SpeI to give expression plasmid pFB-DGAT1. The nucleotide sequence of the inserted fragment was confirmed and found to be identical with the nucleotide sequence of DGAT1 (245-1711 of Genbank Accession No. NM_012079). Furthermore, using BAC-TO-BAC Baculovirus Expression System (Invitrogen), recombinant baculovirus BAC-DGAT1 was prepared.
SF9 cells were sown at 1×10^6 cells/ml on Sf-900II SFM medium (1 L, Invitrogen) containing 10% fetal calf serum (Trace), 50 mg/L gentamicin (Invitrogen) and 0.1% Pluronic F-68 (Invitrogen), and shaking culture was performed using a 2 L volume Erlenmeyer flask at 27° C., 100 rpm. After culturing for 24 hrs, recombinant baculovirus BAC-DGAT1 (6.7 mL) was added, and the mixture was further cultured for 3 days. The culture medium was centrifuged at 2,000 rpm for 5 min to give virus-infected cells. The infected cells were washed with a phosphate buffered saline (Invitrogen), centrifuged under the same conditions, and the cells were preserved at −80° C. The cryopreserved cells were thawed in ice, suspended in buffer A (50 mM Tris buffer (30 mL, pH 7.4) containing 20% glycerol, 0.15 M NaCl) supplemented with Complete Protease Inhibitor (Boehringer), and ruptured 3 times with a Polytron homogenizer (Kinematica) at 20,000 rpm for 30 sec. The Sf9 microsome fractions were obtained by a conventional method and cryopreserved at −80° C. as a DGAT1 high expression Sf9 microsome.
As a DGAT1 reaction buffer, a solution having a composition of 100 mM Tris-HCl (pH 7.5), 250 mM sucrose, 150 mM MgCl2, 0.01% bovine serum albumin (BSA) was used. Using this buffer, a given concentration of the test compound and a composition (100 μl) of 25 μM dioleoylglycerol, 25 μM [^14C]-Oleoyl-CoA, 5 μg protein/ml DGAT1 high expression Sf9 microsome, and 1% acetone were subjected to a triglyceride synthesis reaction at 32° C. for 20 min. A mixture of 300 μL of chloroform:methanol (=1:2) was added to the reaction mixture to quench the reaction. The reaction mixture was sufficiently mixed and distilled water (200 μL) was added to partition the mixture between a chloroform layer (lower layer) and an aqueous layer (upper layer). The chloroform layer (50 μL) was spotted on a thin layer chromatography silica gel plate (TLC plate, Merck) and developed with a solvent (n-hexane:diethyl ether:ethyl acetate:acetic acid=255:30:15:0.6). The developed TLC plate was dried, contacted with a BAS imaging plate (manufactured by FUJIFILM) and measured with BAS2500 (manufactured by FUJIFILM) 16 hr later to numerically show the amount of [^14C]-triglyceride (TG amount) produced during the reaction. The inhibitory rate was calculated by the following formula:
Inhibitory rate (%)=(1−(TG amount with addition of test compound−blank TG amount)/(control TG amount−blank TG amount))×100 […]

CC(C)c1nnc([C@H]2CC[C@H](C(=O)NCCNC(=O)c3cn(-c4ccccc4Cl)nc3C(F)(F)F)CC2)o1 [Example E234, 1-(2-chlorophenyl)-N-(2-(trans-4-(5-isopropyl-1,3,4-oxadiazol-2-yl)cyclohexanecarboxamido)ethyl)-3-(trifluoromethyl)-1H-pyrazole-4-carboxamide]
IC50: 100 to 1000 nM

O=C(NCCNC(=O)C1CCN(S(=O)(=O)c2ccccc2)CC1)c1cn(-c2ccccc2)nc1C(F)(F)F [Example E34, N-(2-(1-phenyl-3-(trifluoromethyl)-1H-pyrazole-4-carboxamido)ethyl)-1-(phenylsulfonyl)piperidine-4-carboxamide]
IC50: 10 to 100 nM

O=C(NCCNC(=O)N1CCc2nc[nH]c2C1)c1cn(-c2ccccc2)nc1C(F)(F)F [Example E95, N-(2-(1-phenyl-3-(trifluoromethyl)-1H-pyrazole-4-carboxamido)ethyl)-6,7-dihydro-3H-imidazo[4,5-c]pyridine-5(4H)-carboxamide]
IC50: 100 to 1000 nM

O=C(N[C@H]1CC[C@H](C(=O)NCCNC(=O)c2cn(-c3ccccc3)nc2C(F)(F)F)CC1)c1ccccc1 [Example E91, N-(2-(trans-4-Benzamidocyclohexanecarboxamido)ethyl)-1-phenyl-3-(trifluoromethyl)-1H-pyrazole-4-carboxamide]
IC50: 100 to 1000 nM

O=C(NCCNC(=O)[C@H]1CC[C@H](c2n[nH]c(=O)o2)CC1)c1cn(-c2ccccc2)nc1C(F)(F)F [Example E197, N-(2-(trans-4-(5-oxo-4,5-dihydro-1,3,4-oxadiazol-2-yl)cyclohexanecarboxamido)ethyl)-1-phenyl-3-(trifluoromethyl)-1H-pyrazole-4-carboxamide]
IC50: 10 to 100 nM

CC(C)c1nc(C2CCN(C(=O)NCCNC(=O)c3cn(-c4ccccc4)nc3C(F)(F)F)CC2)no1 [Example E225, 4-(5-isopropyl-1,2,4-oxadiazol-3-yl)-N-(2-(1-phenyl-3-(trifluoromethyl)-1H-pyrazole-4-carboxamido)ethyl)piperidine-1-carboxamide]
IC50: 100 to 1000 nM

CC(C)c1nc2c(s1)CC(C(=O)NCCNC(=O)c1cn(-c3ccccc3)nc1C(F)(F)F)CC2 (centres unmarked) [Example E242, 2-isopropyl-N-(2-(1-phenyl-3-(trifluoromethyl)-1H-pyrazole-4-carboxamido)ethyl)-4,5,6,7-tetrahydrobenzo[d]thiazole-6-carboxamide]
IC50: 10 to 100 nM

O=C(NCCNC(=O)C1CCC(c2ccccc2)CC1)c1cn(-c2ccccc2)nc1C(F)(F)F (centres unmarked) [Example E105, 1-phenyl-N-(2-(4-phenylcyclohexanecarboxamido)ethyl)-3-(trifluoromethyl)-1H-pyrazole-4-carboxamide]
IC50: < 10 nM

O=C(NCCNC(=O)C1CCc2nc(-c3ccccc3)sc2C1)c1cn(-c2ccccc2)nc1C(F)(F)F (centres unmarked) [Example E175, 2-phenyl-N-(2-(1-phenyl-3-(trifluoromethyl)-1H-pyrazole-4-carboxamido)ethyl)-4,5,6,7-tetrahydrobenzo[d]thiazole-6-carboxamide]
IC50: 10 to 100 nM

O=C(NCCNC(=O)C1CCc2c(cnn2-c2ccccc2)C1)c1cn(-c2ccccc2)nc1C(F)(F)F (centres unmarked) [Example E179, 1-phenyl-N-(2-(1-phenyl-3-(trifluoromethyl)-1H-pyrazole-4-carboxamido)ethyl)-4,5,6,7-tetrahydro-1H-indazole-5-carboxamide]
IC50: 10 to 100 nM

O=C(NCCNC(=O)N1CCC(C(=O)N2CCCC2)CC1)c1cn(-c2ccccc2)nc1C(F)(F)F [Example E63, N-(2-(1-phenyl-3-(trifluoromethyl)-1H-pyrazole-4-carboxamido)ethyl)-4-(pyrrolidine-1-carbonyl)piperidine-1-carboxamide]
IC50: 100 to 1000 nM

CC(C)c1nc([C@H]2CC[C@H](C(=O)NCCNC(=O)c3cn(-c4ccccc4F)nc3C(F)(F)F)CC2)no1 [Example E260, 1-(2-fluorophenyl)-N-(2-(trans-4-(5-isopropyl-1,2,4-oxadiazol-3-yl)cyclohexanecarboxamido)ethyl)-3-(trifluoromethyl)-1H-pyrazole-4-carboxamide]
IC50: 10 to 100 nM

CC(C)c1nc([C@H]2CC[C@H](C(=O)NCCNC(=O)c3cn(-c4ccccc4)nc3C(F)(F)F)CC2)no1 [Example E228, N-(2-(trans-4-(5-isopropyl-1,2,4-oxadiazol-3-yl)cyclohexanecarboxamido)ethyl)-1-phenyl-3-(trifluoromethyl)-1H-pyrazole-4-carboxamide]
IC50: 10 to 100 nM

CN(CCc1ccncc1)C(=O)NCCNC(=O)c1cn(-c2ccccc2)nc1C(F)(F)F [Example F1, N-(2-(3-Methyl-3-(2-(pyridin-4-yl)ethyl)ureido)ethyl)-1-phenyl-3-(trifluoromethyl)-1H-pyrazole-4-carboxamide]
IC50: 1000 to 10000 nM

CC(C)C1CN(C(=O)NCCNC(=O)c2cn(-c3ccccc3)nc2C(F)(F)F)CC1C(=O)c1ccccc1 (centres unmarked) [Example E193, N-(2-(3-benzoyl-4-isopropylpyrrolidine-1-carboxamido)ethyl)-1-phenyl-3-(trifluouromethyl)-1H-pyrazole-4-carboxamide]
IC50: 1000 to 10000 nM

O=C(NCCNC(=O)[C@H]1CC[C@H](c2nc(C3CC3)no2)CC1)c1cn(-c2ccccc2)nc1C(F)(F)F [Example E151, N-(2-(trans-4-(3-Cyclopropyl-1,2,4-oxadiazol-5-yl)cyclohexanecarboxamido)ethyl)-1-phenyl-3-(trifluoromethyl)-1H-pyrazole-4-carboxamide]
IC50: 10 to 100 nM

O=C(NCCNC(=O)[C@H]1CC[C@H](C(=O)NCCF)CC1)c1cn(-c2ccccc2)nc1C(F)(F)F [Example E165, trans-N1-(2-fluoroethyl)-N4-(2-(1-phenyl-3-(trifluoromethyl)-1H-pyrazole-4-carboxamido)ethyl)cyclohexane-1,4-dicarboxamide]
IC50: 100 to 1000 nM

Cn1cnc(-c2ccccc2)c1C1CCN(C(=O)NCCNC(=O)c2cn(-c3ccccc3)nc2C(F)(F)F)CC1 [Example E207, 4-(1-methyl-4-phenyl-1H-imidazol-5-yl)-N-(2-(1-phenyl-3-(trifluoromethyl)-1H-pyrazole-4-carboxamido)ethyl)piperidine-1-carboxamide]
IC50: 100 to 1000 nM

CC(C)c1nc([C@H]2CC[C@H](C(=O)NCCNC(=O)c3cn(-c4ccccc4Cl)nc3C(F)(F)F)CC2)no1 [Example E257, 1-(2-chlorophenyl)-N-(2-(trans-4-(5-isopropyl-1,2,4-oxadiazol-3-yl)cyclohexanecarboxamido)ethyl)-3-(trifluoromethyl)-1H-pyrazole-4-carboxamide]
IC50: 10 to 100 nM

O=C(NCCNC(=O)C1CCN(S(=O)(=O)c2cccnc2)CC1)c1cn(-c2ccccc2)nc1C(F)(F)F [Example E74, N-(2-(1-phenyl-3-(trifluoromethyl)-1H-pyrazole-4-carboxamido)ethyl)-1-(pyridin-3-ylsulfonyl)piperidine-4-carboxamide]
IC50: 10 to 100 nM
